The source made the active and inactive calls. No cut-off for these calls is given here.
Assays:
[1] = target: Serine/threonine-protein kinase Chk1 (Homo sapiens) (UniProt O14757); experiment: Inhibition of wild-type human partial length CHEK1 (M1 to G289 residues) expressed in bacterial expression system assessed as residual activity at 1 uM by Kinomescan method relative to control
BT-483 [2] = experiment: Induction of autophagy in human BT-483 cells assessed as activation of LC3 at 5 to 10 uM by Western blot analysis; format: functional, cell-based
BT-483 [3] = experiment: Induction of apoptosis in human BT-483 cells assessed as live cells at 5 uM by Annexin V-FITC/propidium iodide staining based flow cytometry (reference value: 87.5%); format: functional
[4] = target: High affinity nerve growth factor receptor (Homo sapiens) (UniProt P04629); experiment: Inhibition of wild-type human partial length TRKA (G475 to G790 residues) expressed in mammalian expression system assessed as residual activity at 1 uM by Kinomescan method relative to control
[5] = target: Mitogen-activated protein kinase kinase kinase 9 (Homo sapiens) (UniProt P80192); experiment: Inhibition of wild-type human partial length MLK1 (V88 to W426 residues) expressed in bacterial expression system assessed as residual activity at 1 uM by Kinomescan method relative to control
BT-483 [6] = experiment: Effect on total EEF2 protein expression in human BT-483 cells at 5 to 10 uM by Western blot analysis; format: ADME, cell-based; details: bt-483, 10 µM
BT-483 [7] = experiment: Effect on total EEF2K protein expression in human BT-483 cells at 5 to 10 uM by Western blot analysis; format: ADME, cell-based; details: bt-483, 10 µM
BT-483 [8] = experiment: Induction of apoptosis in human BT-483 cells assessed as late apoptotic cells at 5 uM by Annexin V-FITC/propidium iodide staining based flow cytometry (reference value: 0.36%); format: functional
[9] = target: Dual specificity mitogen-activated protein kinase kinase 1 (Homo sapiens) (UniProt Q02750); experiment: Inhibition of wild-type human full length MEK1 (M1 to V393 residues) expressed in mammalian expression system assessed as residual activity at 1 uM by Kinomescan method relative to control
[10] = target: Ephrin type-A receptor 2 (Homo sapiens) (UniProt P29317); experiment: Inhibition of wild-type human partial length EPHA2 (T593 to V891 residues) expressed in bacterial expression system assessed as residual activity at 1 uM by Kinomescan method relative to control
[11] = target: Serine/threonine-protein kinase pim-2 (Homo sapiens) (UniProt Q9P1W9); experiment: Inhibition of wild-type human partial length PIM2 (M1 to E291 residues) expressed in bacterial expression system assessed as residual activity at 1 uM by Kinomescan method relative to control
BT-483 [12] = experiment: Upregulation of Bax protein expression in human BT-483 cells at 5 to 10 uM by Western blot analysis; format: functional, cell-based
[13] = target: Fibroblast growth factor receptor 1 (Homo sapiens) (UniProt P11362); experiment: Inhibition of wild-type human partial length FGFR1 (P357 to V669 residues) expressed in bacterial expression system assessed as residual activity at 1 uM by Kinomescan method relative to control
[14] = system: Mast/stem cell growth factor receptor Kit (Homo sapiens), P10721 [D816V]; experiment: Inhibition of human partial length KIT D816V mutant (I571 to D952 residues) expressed in bacterial expression system assessed as residual activity at 1 uM by Kinomescan method relative to control
BT-483 [15] = experiment: Effect on FADD protein expression in human BT-483 cells at 5 to 10 uM by Western blot analysis; format: functional, cell-based
BT-483 [16] = experiment: Cytotoxicity against human BT-483 cells after 24 hrs by MTT assay; format: functional, cell-based; details: BT-483, 24 h
MDA-MB-468 = experiment: Cytotoxicity against human MDA-MB-468 cells after 24 hrs by MTT assay; format: functional, cell-based
BT-483 [17] = experiment: Cell cycle arrest in human BT-483 cells assessed as accumulation at G2/M phase at 5 to 10 uM after 24 to 72 hrs; format: functional, cell-based
[18] = system: Tyrosine-protein kinase ABL1 (Homo sapiens), P00519 [T315I]; experiment: Inhibition of human phosphorylated ABL1 T315I mutant (S229 to K512 residues) expressed in mammalian expression system assessed as residual activity at 1 uM by Kinomescan method relative to control
[19] = target: MAP kinase-activated protein kinase 2 (Homo sapiens) (UniProt P49137); experiment: Inhibition of wild-type human partial length MAPKAPK2 (V48 to D345 residues) expressed in bacterial expression system assessed as residual activity at 1 uM by Kinomescan method relative to control
[20] = target: Serine/threonine-protein kinase pim-1 (Homo sapiens) (UniProt P11309); experiment: Inhibition of wild-type human partial length PIM1 (A15 to K313 residues) expressed in bacterial expression system assessed as residual activity at 1 uM by Kinomescan method relative to control
BT-483 [21] = experiment: Induction of apoptosis in human BT-483 cells assessed as early apoptotic cells at 10 uM by Annexin V-FITC/propidium iodide staining based flow cytometry (reference value: 2.01%); format: functional
[22] = target: Epidermal growth factor receptor (Homo sapiens) (UniProt P00533); experiment: Inhibition of wild-type human partial length EGFR (R669 to V1011 residues) expressed in bacterial expression system assessed as residual activity at 1 uM by Kinomescan method relative to control
[23] = target: Casein kinase I isoform gamma-2 (Homo sapiens) (UniProt P78368); experiment: Inhibition of wild-type human full length CSNK1G2 (M1 to K415 residues) expressed in bacterial expression system assessed as residual activity at 1 uM by Kinomescan method relative to control
[24] = target: Mitogen-activated protein kinase 8 (Homo sapiens) (UniProt P45983); experiment: Inhibition of wild-type human full length JNK1 (M1 to Q384 residues) expressed in mammalian expression system assessed as residual activity at 1 uM by Kinomescan method relative to control
[25] = target: Serine/threonine-protein kinase B-raf (Homo sapiens) (UniProt P15056); experiment: Inhibition of wild-type human partial length BRAF (S429 to E741 residues) expressed in mammalian expression system assessed as residual activity at 1 uM by Kinomescan method relative to control
[26] = system: Tyrosine-protein kinase ABL1 (Homo sapiens), P00519 [E255K]; experiment: Inhibition of human phosphorylated ABL1 E255K mutant (S229 to K512 residues) expressed in mammalian expression system assessed as residual activity at 1 uM by Kinomescan method relative to control
[27] = target: Mitogen-activated protein kinase 11 (Homo sapiens) (UniProt Q15759); experiment: Inhibition of wild-type human full length p38-beta (M1 to Q364 residues) expressed in bacterial expression system assessed as residual activity at 1 uM by Kinomescan method relative to control
[28] = system: Mast/stem cell growth factor receptor Kit (Homo sapiens), P10721 [V559D,T670I]; experiment: Inhibition of human partial length KIT V559D/T670I double mutant (Y545 to D952 residues) expressed in bacterial expression system assessed as residual activity at 1 uM by Kinomescan method relative to control
BT-483 [29] = experiment: Induction of apoptosis in human BT-483 cells assessed as necrotic cells at 5 uM by Annexin V-FITC/propidium iodide staining based flow cytometry (reference value: 0.18%); format: functional

With `CCNc1cc(-c2ccc(NC(=O)Nc3cccc(Cl)c3)cc2C(F)(F)F)ccn1` the Activity [1] was 81%, the Activity (BT-483 [2]) was “Active” and the Activity (BT-483 [3]) was 86.2%. For the same compound, the Activity [4] was 84%, the Activity [5] was 67% and the Activity (BT-483 [6]) was “Non-Toxic”. For the same compound, the Activity (BT-483 [7]) was “Non-Toxic”, the Activity (BT-483 [8]) was 6.67% and the Activity [9] was 96%. The Activity [10] was 95%, the Activity [11] was 88% and the Activity (BT-483 [12]) was “Active”. The Activity [13] was 91%, the Activity [14] was 84% and the Activity (BT-483 [15]) was “inactive”. The IC50 (BT-483 [16]) was 13.3 µM, the Activity (MDA-MB-468) was “Active” and the Activity (BT-483 [17]) was “Active”. For the same compound, the Activity [18] was 96%, the Activity [19] was 95% and the Activity [20] was 66%. The Activity (BT-483 [21]) was 8.72%, the Activity [22] was 90% and the Activity [23] was 90%. It also gave an Activity [24] of 75%, an Activity [25] of 93% and an Activity [26] of 82%. For the same compound, the Activity [27] was 60%, the Activity [28] was 93% and the Activity (BT-483 [29]) was 0.45%.
